# Where no end group is shown, it is not given here.
# Tests used:
# [1] = tested on: HUVEC; assay: Matrigel endothelial cell tube formation assay; assay type: cell-based, Human; details: HUVEC on Matrigel, 0-300 μg/ml, serum-free media, 24 hours
# Description: Matrigel endothelial cell tube formation assay Matrigel (12.5 mg/ml) was thawed at 4° C., and 50 μl were quickly added to each well of a 96-well plate and allowed to solidify for 10 min at 37° C. […] The formation of capillary-like structures was examined microscopically and pictures (50×) were taken using a Retiga 1300 camera and a Zeiss Axiovert S100 microscope. The extent to which capillary-like structures formed in the gel was quantified by analysis of digitized images to determine the thread length of the capillary-like network, using a commercially available image analysis program (Northern Eclipse).
# Matrigel endothelial cell tube formation assay. […] The extent to which capillary-like structures formed in the gel was quantified by analysis of digitized images using a commercially available image analysis software (Northern Eclipse) (25).
# This three dimensional ECM model assay provides physiologically relevant environment for studies of cell morphology, biochemical function, and gene expression in endothelial cells (EC) that can be modulated for instance by tumor growth factors or hypoxic culture conditions. […] The extent of capillary-like structures formation (density and size of structures) can be quantified by analysis of digitized images to determine the relative size and area covered by the tube-like network, using an image analysis software (Un-Scan-it, Empix Imaging). […]
# [2] = tested on: HUVEC; assay: HUVEC migration assay (modified Boyden chambers, gelatin-coated filters); assay type: cell-based, Human
# Description: Migration Assays. Transwells filters (8-μm pore size; Costar, Cambridge, Mass.) were pre-coated with 0.5% gelatin/PBS for 24 h at 4° C. The transwells were then washed with PBS and assembled in 24-well plates. The upper chamber of each transwell was filled with 100 μl of HUVEC (1×10^6 cells/ml) and cells were allowed to adhere for 1 h. Cells were then treated for 2 h by adding 100 μl of 2-fold concentrated drug solution prepared in serum-free medium into the upper chamber and 600 μl of the drug solution into the lower chamber. Migration was initiated by adding VEGF (10 ng/ml), or S1P (1 μM) to the lower chamber. The plate was placed at 37° C. in 5% CO2/95% air for 4 h. Cells that had migrated to the lower surface of the filters were fixed with 10% formalin phosphate and stained with 0.1% Crystal Violet/20% (v/v) methanol. The migration was quantified using computer-assisted imaging and data are expressed as the average density of migrated cells per four fields (magnification×50).
# Cells were plated onto gelatin-coated filters inserted in modified Boyden chemotactic chambers. The effect of PCK3145 on basal migration and on VEGF-induced migration was monitored by the number of cells that had migrated comparatively to untreated control cells. HUVEC were dislodged from the flasks by trypsinization, washed and resuspended in serum-free media. Cells were placed onto gelatin-coated filters inserted in chambers and incubated at 37° C., 5% CO2 for 30 min to allow adequate anchoring to the filters. The monolayers were then exposed to serum-free media containing PCK3145 (300 μg/ml) added within the upper and lower compartment of the chambers. After 2 h, VEGF (50 ng/ml) was added in the lower chamber as a chemoattractant. Cell migration was allowed to proceed for another 3 h. Filters were then fixed, stained, and the migrated cells quantified by microscopy as described in the Methods section. […] The effect of. PCK on S1P-induced HUVEC migration was also measured, but no inhibition was observed (not shown) in this particular assay.
# [3] = tested on: glioma cells (U-87); assay: SEAP gene-reporter assay (Mercury Profiling Kit); assay type: cell-based
# Description: In order to investigate the potential intracellular pathways triggered by the PCK3145 derivative, a gene-reporter assay using the SEAP (Secreted Alkaline Phosphatase) Mercury Profiling Kit (CLONTECH) was performed in glioma cells (U-87). This assay enables the monitoring of transcription factors that are triggered by a particular experimental condition by assaying the alkaline phosphatase activity in the extracellular media.
# [4] = tested on: RhoA; assay: RhoA gene and protein expression in U-87 cells (Western blot, RT-PCR); assay type: cell-based; details: U-87, 300 ug/ml, 48 hrs
# Description: Specific manipulation of the GTPase Rho activity can be used to suppress or enhance the organizational behaviour of endothelial cells as well as it can restrict cancer cells proliferation. In particular, RhoA mediates cell contractility by organizing actin filaments which consequently regulates cell migration. […] Tests were carried out in order to determine whether the PCK3145 derivative affected RhoA gene and protein expression. U-87 cells were either treated with the PCK3145 derivative (300 ug/ml, 48 hrs). Results of this experiment confirm that the PCK3145 derivative induced endogenous RhoA protein expression in U-87 cells as assessed by Western blotting (FIG. 11A, FIG. 11C).
sequence,measurement,setting,value
"EWQTDNCETCTCYET (cysteine pairing not given here) [PCK3145 derivative, PCK3145 derivative with acetylaminomethyl groups on the three cysteines]",capillary-like structure formation (tubulogenesis),[1],negatively affects tubulogenesis
same,S1P-induced HUVEC migration,[2],no inhibition
same,"MAPK/JNK pathway (SRE), SEAP reporter",[3],triggers significantly
same,"NFkB pathway, SEAP reporter",[3],triggers significantly
same,secretion of the constitutively expressed SEAP,[3],inhibited
same,RhoA gene expression (RT-PCR),[4],paralleled that of its gene expression
same,endogenous RhoA protein expression (Western blotting),[4],induced

# — patent publication US20080200393A1, “Method and Composition For Treating Angiogenesis and For Preventing Cancer Progression and Metastasis Comprising a Prostate Secretory Protein (Psp94) Family Member” (Ambrillia Biopharma Inc., priority 2004, published 2008)
